{"source": "patent US20230190935A1", "about": "“Blood pathogen inactivation method” (Institute of Blood Transfusion CAMS, priority 2021, published 2023)", "test_system": "S. aureus", "experiment": "Pathogen inactivation in plasma spiked with S. aureus: combinations of low-frequency sonication, UV light and riboflavin", "type": "cell-based", "settings": "for growth of S. aureus after treatment: n = 6", "data": [{"smiles": "Cc1cc2nc3c(=O)[nH]c(=O)nc-3n(C[C@H](O)[C@H](O)[C@H](O)CO)c2cc1C", "note": "[riboflavin]", "values": [{"measurement": "growth of S. aureus after treatment", "setting": "Riboflavin-containing sample (50 µmol/L, plasma) + low-frequency sonication 30 KHz, no illumination, table row 0.27 J/mL, 10 min", "value": "5.84 ± 0.18", "unit": "log"}, {"measurement": "growth of S. aureus after treatment", "setting": "Riboflavin-containing sample (50 µmol/L, plasma) + low-frequency sonication 30 KHz, no illumination, table row 0.54 J/mL, 20 min", "value": "5.72 ± 0.30", "unit": "log"}, {"measurement": "growth of S. aureus after treatment", "setting": "Riboflavin-containing sample (50 µmol/L, plasma) + low-frequency sonication 30 KHz, no illumination, table row 0.81 J/mL, 30 min", "value": "5.67 ± 0.32", "unit": "log"}, {"measurement": "growth of S. aureus after treatment", "setting": "Sonication (30 KHz) + UV light (311 ± 50 nm) + riboflavin 50 µmol/L in plasma, light energy 0.27 J/mL, 10 min", "value": "4.48 ± 0.46", "unit": "log"}, {"measurement": "growth of S. aureus after treatment", "setting": "Sonication (30 KHz) + UV light (311 ± 50 nm) + riboflavin 50 µmol/L in plasma, light energy 0.54 J/mL, 20 min", "value": "2.04 ± 0.71", "unit": "log"}, {"measurement": "growth of S. aureus after treatment", "setting": "Sonication (30 KHz) + UV light (311 ± 50 nm) + riboflavin 50 µmol/L in plasma, light energy 0.81 J/mL, 30 min", "value": "1.28 ± 0.66", "unit": "log"}, {"measurement": "growth of S. aureus after treatment", "setting": "UV light (311 ± 50 nm) + riboflavin 50 µmol/L in plasma, no sonication, light energy 0.27 J/mL, 10 min", "value": "5.41 ± 0.029", "unit": "log"}, {"measurement": "growth of S. aureus after treatment", "setting": "UV light (311 ± 50 nm) + riboflavin 50 µmol/L in plasma, no sonication, light energy 0.54 J/mL, 20 min", "value": "5.66 ± 0.09", "unit": "log"}, {"measurement": "growth of S. aureus after treatment", "setting": "UV light (311 ± 50 nm) + riboflavin 50 µmol/L in plasma, no sonication, light energy 0.81 J/mL, 30 min", "value": "5.23 ± 0.16", "unit": "log"}, {"measurement": "pathogen inactivation effect (in words)", "setting": "UV light + riboflavin group, 0.81 J/mL", "value": "no inactivation effect"}, {"measurement": "effect of combining low-frequency sonication with riboflavin photochemical method (in words)", "setting": "low-frequency sonication + UV light + riboflavin", "value": "synergistic effect"}, {"measurement": "pathogen inactivation effect (in words)", "setting": "sonication + UV light + riboflavin group", "value": "strong pathogen inactivation effect"}, {"measurement": "pathogen inactivation effect (in words)", "setting": "sonication + riboflavin group, 0.81 J/mL", "value": "no inactivation effect"}]}]}
